Entries after “also recorded” stand apart in the source; their conditions may differ.
What was measured:
H0-1 cells = assay: Northern blotting analysis of steady-state mRNA levels; type: cell-based, human; conditions: FIG. 1 concentrations; for c-jun and jun-B expression / c-myc expression: 96 hours
Protocol: Steady-state levels of specific mRNAs were determined by Northern blotting analysis of total RNA probed with appropriate ^32P-labeled gene probes as described previously (14-16). RNAs were analyzed from cells treated with inducer for 24 hours, treated for 24 hours with inducer followed by growth for 72 hours in the absence of inducer, or treated continuously for 96 hours with the inducer. The concentration of inducing compounds used were the same as those used for growth studies. The effect of conditioned medium on gene expression changes was determined by treating H0-1 cells for 24 hours with a 1:2 dilution of conditioned medium (equal volumes of conditioned medium and DMEM supplemented with 10% fetal bovine serum (DMEM-10) or for 96 hours with a 1:4 dilution of conditioned medium (1 vol. of conditioned medium to 3 vol. of DMEM-10). The probes used in the present study were specific for β-actin (17), γ-actin (17), c-jun (18), c-myc (19), fibronectin (20), gro/MGSA (21), HLA Class I antigen (22), HLA Class II antigen (HLA-DRβ) (22), α5 integrin (23), β1 integrin (24), ISG-15 (25), ISG-54 (25), jun-B (26), and tenascin (27). Northern blots were also probed with a ^32P-labeled GAPDH gene (15) to verify similar mRNA expression under the various experimental conditions. Following hybridization, the filters were washed and exposed for autoradiography.

mda-5 = mda-5 expression (Northern blotting); type: cell-based, human; conditions: H0-1; 96 hours; doses of FIG. 15 legend
Protocol: (§1) The mass excision of the library was performed using ExAssist helper phage as described above. The SOLR strain of Escherichia coli and cDNA phagemids were mixed at 37° C. for 15 min and plated onto LB plates containing ampicillin and IPTG/X-gal. White colonies were chosen at random, isolated and grown in LB medium. Plasmid minireps and restriction enzyme digestions were performed to confirm the presence of inserts. The inserts were isolated and used as robes for Northern blotting analysis (5,25). […] Radiolabeled probes were generated by random oligonucleotide priming (25). Prehybridization, hybridization, posthybridization washes, and autoradiography were performed as described (5,18,25).

[1] = system: H0-1 human melanoma cell line; assay: 96-h growth suppression (cell number by Coulter Counter); type: cell-based; conditions: H0-1 cells, degree of initial 96 hr growth suppression versus untreated control
Protocol: FIG. 1A-B Effect of continuous exposure to various growth and differentiation modulating agents on the 96-h growth of the human melanoma cell line, H0-1. Cells were seeded at 5×10^4/35-mm tissue culture plate and 24 h later the medium was changed with the indicated compounds. Cell numbers were determined by Coulter Counter after 96-h growth. Further details can be found in Materials and Methods.
The H0-1 cell line is a melanotic melanoma derived from a person and was used between passage 100 and 125 (6,8,13). H0-1 cells were kindly provided by Dr. Beppino C. Giovanella, Stehlin Foundation for Cancer Research, Houston, Tex. Cultures were grown at 37° C. in a 95% air 5% CO2-humidified incubator in Dulbecco's modified Eagle's medium (DMEM) supplemented with 10% fetal bovine serum (DMEM-10) (Hyclone, Logan, Utah). H0-1 cells were maintained in the logarithmic stage of growth by subculturing (1:5 or 1:10) prior to confluency approximately every 4 to 5 days. […] Total cell numbers were determined after days 4, 7, 14, and 21, using a ZM Coulter Counter, and viable cell numbers were determined by trypan blue dye exclusion (6). […] Increases in cell number (two or more population doublings) after removal of the inducing agent(s) was considered reversible growth suppression. […] Conditioned medium was collected from treated cultures, contaminating cells were removed by centrifugation at 1000 rpm/10 min., and conditioned medium was stored at 4° C. until assayed for gene modulatory activity. Control conditioned medium was obtained as experimental conditioned medium from cells receiving only a medium change 24 hours after plating in the absence of test compound(s) and growth for 72 hours in DMEM-10.

mda-6 = mda-6 expression (Northern blotting); type: cell-based, human; conditions: H0-1; 96 hours; doses of FIG. 15 legend
Protocol: as §1
Total cytoplasmic RNA was isolated and Northern blotting hybridization was performed as described (Reddy et al., 1991; Su et al., 1991; Jiang et al., 1992). Ten μg of RNA was denatured with glyoxal/DMSO, electrophoresed on 1.0% agarose gels, transferred to nylon membranes and hybridized to a ^32P-labeled p53 probe (Baker et al., 1990). The nylon membrane was stripped and hybridized to a ^32P-labeled mda-6 probe (Jiang and Fisher, 1993) and then after a second stripping the membrane was hybridized to a ^32P-labeled rat GAPDH probe (Fort et al., 1985), as described previously (Reddy et al., 1991; Su et al., 1991; Jiang et al., 1992). Following hybridization, the filters were washed and exposed for autoradiography (Reddy et al., 1991; Su et al., 1991; Jiang et al., 1992). mda-6 and GAPDH gene expression were also determined by reverse transcription-polymerase chain reaction (RT-PCR) as described (Adollahi et al., 1991; Lin et al., 1994; Jiang et al., 1994b). Total cytoplasmic RNA was treated with 0.5 units DNase (Boehringer-Mannheim Biochemicals)/μg RNA in 15% glycerol, 10 mM Tris, pH 7.5, 2.5 mM MgCl2, 0.1 mM EDTA, 80 mM KCl, 1 mM CaCl2 and 1 unit/ml RNasin (Promega) at 30° C. for 10 min. RNA was extracted with phenol-chloroform, precipitated with sodium acetate/ethanol and RNA pellets were resuspended in diethylpyrocarbonate-treated H2O. One μg of total RNA was reverse transcribed with 200 units of murine leukemia virus reverse transcriptase (Bethesda Research Laboratories) in 20 μl containing 1 mM deoxyribonucleotide triphosphates, 4 mM MgCl2, 10 mM Tris, pH 8.3, 50 mM KCl, 0.001% gelatin and 0.2 μg oligo-dT primer. Samples were adjusted to 100 μl with buffer containing 0.2 mM deoxyribonucleotide triphosphates, 2 mM MgCl2, 10 mM Tris, pH 8.3, 50 mM KCl and 0.001% gelatin. Fifty pmol of each primer, 1.5 units Taq DNA polymerase (Perkin-Elmer Cetus) were added and samples were covered with mineral oil, heated at 95° C. for 5 min and subjected to 25 cycles of PCR in a Perkin-Elmer Thermal Cycler using 1 min denaturation at 94° C., 2 min annealing at 55° C. and 3 min polymerization at 72° C. After extraction with chloroform, 20 μl of products were electrophoresed, blotted onto nylon filters and hybridized with an mda-6 or GAPDH specific probe. The mda-6 primers were 5′ to 3′ […] (SEQ ID NO:26) and […] (SEQ ID NO:27)(corresponding to nt 1527 to 1546) (GenBank accession number U09579); and the GAPDH primers were 5′ to 3′ […] (SEQ ID NO:28)and […] (SEQ ID NO:29)(corresponding to nt 1070 to 1053) (Tokunaga et al., 1987).

mda-9 = mda-9 expression (Northern blotting); type: cell-based, human; conditions: H0-1; 96 hours; doses of FIG. 15 legend
Protocol: as §1

mda-4 = mda-4 expression (Northern blotting); type: cell-based, human; conditions: H0-1; 96 hours; doses of FIG. 15 legend
Protocol: as §1

mda-8 = mda-8 expression (Northern blotting); type: cell-based, human; conditions: H0-1; 96 hours; doses of FIG. 15 legend
Protocol: as §1

mda-7 = mda-7 expression (Northern blotting, RT-PCR); type: cell-based, human; conditions: H0-1; 96 hours; doses of FIG. 15 legend
Protocol: as §1

For `COc1c(C)c2c(c(O)c1C/C=C(\C)CCC(=O)O)C(=O)OC2` [MPA, mycophenolic acid], the “HLA Class I antigen gene expression” value (H0-1 cells; 96 h) was “did not significantly alter”, the fibronectin expression (H0-1 cells; 96 h) was “most effective single agents” and the “induction of gro/MGSA gene expression” value (H0-1 cells; 96 h) was “did not”. The tenascin expression (H0-1 cells; 96 h) was “enhanced tenascin expression”, the “c-jun and jun-B expression” value (H0-1 cells) was “increase” and the c-myc expression (H0-1 cells) was “downregulated”. The mda-5 expression (mda-5) was “No change in expression”, the “Growth Suppression (reversible)” value ([1]; Table 1) was 3+ (3+ = ~50 to 60% reduction in growth in comparison with untreated control cultures) and the “Growth Suppression (reversible)” value ([1]; Table 2) was “− (− = no significant change in growth (<10% reduction in growth in comparison with untreated control cultures))”. For the same compound, the mda-6 expression (mda-6) was “no significant or reduced alteration in expression”, the mda-9 expression (mda-9) was “No change in mda-9 expression” and the mda-4 expression (mda-4) was “No or only a small change in expression”. The mda-8 expression (mda-8) was “No change in expression” and the mda-7 expression (mda-7) was “Increased expression; also recorded: induced”.

For “IFN-γ: Recombinant human immune interferon”, the “HLA Class I antigen gene expression” value (H0-1 cells; 96 h) was “enhanced HLA Class I antigen expression”, the “HLA Class II antigen gene (HLA-DRβ) expression” value (H0-1 cells; 96 h) was “enhanced expression” and the fibronectin expression (H0-1 cells; 96 h) was “most effective single agents”. For the same compound, the “induction of gro/MGSA gene expression” value (H0-1 cells; 96 h) was “did not induce gro/MGSA expression”, the tenascin expression (H0-1 cells; 96 h) was “enhanced tenascin expression” and the β1 integrin expression (H0-1 cells; 96 h) was “upregulation”. The “c-jun and jun-B expression” value (H0-1 cells) was “increase”, the c-myc expression (H0-1 cells) was “increased c-myc expression” and the mda-5 expression (mda-5) was “Enhanced expression; also recorded: induced”. The “Growth Suppression (reversible)” value ([1]; Table 2) was 2+ (2+ = ~40% reduction in growth in comparison with untreated control cultures), the mda-6 expression (mda-6) was “no significant or reduced alteration in expression” and the mda-9 expression (mda-9) was “No change in mda-9 expression”. For the same compound, the mda-4 expression (mda-4) was “Increased expression”, the mda-8 expression (mda-8) was “enhanced mda-8 expression; also recorded: increased mda-8 expression” and the mda-7 expression (mda-7) was “No induction in mda-7 expression; also recorded: does not result in significant mda-7 expression”.

Reference: patent US7507792B2, “MDA-7 proteins and methods of use thereof” (The Trustees of Columbia University In The City of New York, priority 1993, dated 2009)
